Experimental data published in ChEMBL document CHEMBL3774356, “Definitive Metabolite Identification Coupled with Automated Ligand Identification System (ALIS) Technology: A Novel Approach to Uncover Structure-Activity Relationships and Guide Drug Design in a Factor IXa Inhibitor Program” (J Med Chem, 2016).
pIC50, pKi: −log10 of the molar value.

Assays:
[1] = target: Coagulation factor IX (Homo sapiens, UniProt P00740); experiment: Inhibition of human factor 9a using CH3SO2-DCHG-Gly-Arg-AFC.AcOH as substrate preinubated for 30 mins followed by substrate addition measured after 1 hr by fluorescence assay
[2] = test system: Rattus norvegicus; experiment: Dose normalized AUC in Hans-Wistar rat at 2 mg/kg, po; assay type: ADME, organism-based; details: in vivo
[3] = test system: Liver microsome; experiment: Drug metabolism in human liver microsomes assessed as (R)-2,6-dichloro-N-(2-(3-fluorophenyl)-2-(2-methyl-1H-benzo[d]imidazol-5-yl)ethyl)-4-(3-(hydroxymethyl)-1H-1,2,4-triazol-1-yl)benzamide formation after 4 hrs by LC-MS/MS analysis; assay type: ADME
[4] = test system: Liver microsome; experiment: Drug metabolism in human liver microsomes assessed as (R)-2,6-dichloro-N-(2-(3-fluorophenyl)-2-hydroxy-2-(2-methyl-1H-benzo[d]imidazol-5-yl)ethyl)-4-(3-methyl-1H-1,2,4-triazol-1-yl)benzamide formation after 4 hrs by LC-MS/MS analysis; assay type: ADME
[5] = test system: Liver microsome; experiment: Drug metabolism in Sprague-Dawley rat liver microsomes assessed as (R)-2,6-dichloro-N-(2-(3-fluorophenyl)-2-(2-methyl-1H-benzo[d]imidazol-5-yl)ethyl)-4-(3-(hydroxymethyl)-1H-1,2,4-triazol-1-yl)benzamide formation after 4 hrs by LC-MS/MS analysis; assay type: ADME
[6] = test system: Liver microsome; experiment: Drug metabolism in Sprague-Dawley rat liver microsomes assessed as (R)-2,6-dichloro-N-(2-(3-fluorophenyl)-2-hydroxy-2-(2-methyl-1H-benzo[d]imidazol-5-yl)ethyl)-4-(3-methyl-1H-1,2,4-triazol-1-yl)benzamide formation after 4 hrs by LC-MS/MS analysis; assay type: ADME
[7] = test system: Liver microsome; experiment: Drug metabolism in beagle dog liver microsomes assessed as (R)-2,6-dichloro-N-(2-(3-fluorophenyl)-2-(2-methyl-1H-benzo[d]imidazol-5-yl)ethyl)-4-(3-(hydroxymethyl)-1H-1,2,4-triazol-1-yl)benzamide formation at 100 uM after 4 hrs by LC-MS/MS analysis; assay type: ADME, Canis lupus familiaris
[8] = test system: Liver microsome; experiment: Drug metabolism in beagle dog liver microsomes assessed as (R)-2,6-dichloro-N-(2-(3-fluorophenyl)-2-hydroxy-2-(2-methyl-1H-benzo[d]imidazol-5-yl)ethyl)-4-(3-methyl-1H-1,2,4-triazol-1-yl)benzamide formation at 100 uM after 4 hrs by LC-MS/MS analysis; assay type: ADME, Canis lupus familiaris
[9] = test system: Liver microsome; experiment: Drug level in human liver microsomes treated with (R)-2,6-Dichloro-N-(2-(3-fluorophenyl)-2-(2-methyl-1Hbenzo[d]imidazol-5-yl)ethyl)-4-(3-methyl-1H-1,2,4-triazol-1-yl)-benzamide after 4 hrs by LC-MS/MS analysis; assay type: ADME
[10] = test system: Liver microsome; experiment: Drug level in Sprague-Dawley rat liver microsomes treated with (R)-2,6-Dichloro-N-(2-(3-fluorophenyl)-2-(2-methyl-1Hbenzo[d]imidazol-5-yl)ethyl)-4-(3-methyl-1H-1,2,4-triazol-1-yl)-benzamide after 4 hrs by LC-MS/MS analysis; assay type: ADME
[11] = Retention time of the compound by size exclusion chromatography; assay type: physicochemical
[12] = test system: Liver microsome; experiment: Drug level in beagle dog liver microsomes treated with (R)-2,6-Dichloro-N-(2-(3-fluorophenyl)-2-(2-methyl-1Hbenzo[d]imidazol-5-yl)ethyl)-4-(3-methyl-1H-1,2,4-triazol-1-yl)-benzamide at 100 uM after 4 hrs by LC-MS/MS analysis; assay type: ADME, Canis lupus familiaris

Sequence of Coagulation factor IX (P00740 47-191 limits assumed): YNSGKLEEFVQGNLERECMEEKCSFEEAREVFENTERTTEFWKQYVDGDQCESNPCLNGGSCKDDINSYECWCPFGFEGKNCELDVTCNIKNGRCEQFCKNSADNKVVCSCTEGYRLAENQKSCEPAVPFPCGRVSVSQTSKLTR
Sequence of Coagulation factor IX (P00740 227-461 limits assumed): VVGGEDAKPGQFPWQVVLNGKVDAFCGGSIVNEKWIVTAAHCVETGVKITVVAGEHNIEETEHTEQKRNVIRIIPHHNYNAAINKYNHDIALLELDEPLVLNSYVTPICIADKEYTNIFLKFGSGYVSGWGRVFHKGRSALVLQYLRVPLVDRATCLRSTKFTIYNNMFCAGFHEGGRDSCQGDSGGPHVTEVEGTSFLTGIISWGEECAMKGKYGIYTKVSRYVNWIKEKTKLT

| Structure (SMILES) | pIC50 [1] | AUC/dose [2] [µM·h/mg/kg] | Drug metabolism [3] | Drug metabolism [4] | Drug metabolism [5] | Drug metabolism [6] | Drug metabolism [7] | Drug metabolism [8] | Drug metabolism [9] | Drug metabolism [10] | Retention_time [11] [min] | Drug metabolism [12] | pKi [1] |
| --- | --- | --- | --- | --- | --- | --- | --- | --- | --- | --- | --- | --- | --- |
| Cc1ncn(-c2cc(Cl)c(C(=O)NC[C@@H](c3cccc(F)c3)c3cc(F)c4[nH]c(C)nc4c3)c(Cl)c2)n1 |  |  |  |  |  |  |  |  |  |  |  |  | 7.97 |
| Cc1ncn(-c2cc(Cl)c(C(=O)NCC(O)(c3cccc(F)c3)c3ccc4[nH]c(C)nc4c3)c(Cl)c2)n1 (single isomer, unassigned) | 7.19 |  |  |  |  |  |  |  | metabolite_detected | metabolite_detected | 4.24 | metabolite_detected |  |

Further lines, results first:

| pIC50 [1] | AUC/dose [2] [µM·h/mg/kg] | Drug metabolism [3] | Drug metabolism [4] | Drug metabolism [5] | Drug metabolism [6] | Drug metabolism [7] | Drug metabolism [8] | Drug metabolism [9] | Drug metabolism [10] | Retention_time [11] [min] | Drug metabolism [12] | pKi [1] | Structure (SMILES) |
| --- | --- | --- | --- | --- | --- | --- | --- | --- | --- | --- | --- | --- | --- |
| 8.00 | 0.097 | metabolite_detected | metabolite_detected | metabolite_detected | metabolite_detected | metabolite_detected | metabolite_detected |  |  |  |  |  | Cc1ncn(-c2cc(Cl)c(C(=O)NC[C@@H](c3cccc(F)c3)c3ccc4[nH]c(C)nc4c3)c(Cl)c2)n1 |
| 8.73 |  |  |  |  |  |  |  | metabolite_detected | metabolite_detected | 3.59 |  |  | Cc1ncn(-c2cc(Cl)c(C(=O)NC[C@@H](c3ccc(O)c(F)c3)c3ccc4[nH]c(C)nc4c3)c(Cl)c2)n1 |
| 7.96 |  |  |  |  |  |  |  | metabolite_detected | metabolite_detected | 3.84 | metabolite_detected |  | Cc1nc2cc([C@@H](CNC(=O)c3c(Cl)cc(-n4cnc(CO)n4)cc3Cl)c3cccc(F)c3)ccc2[nH]1 |
